In patent US20240325319A1, “INHIBITORS OF AMYLOID BETA OLIGOMERIZATION AND THERAPEUTIC USES THEREOF” (Northwestern University, priority 2021, published 2024):
“Also recorded” adds a separate entry of the source.

Tests used:
[1] = system: AβOs; test: Size of AβOs formed, molecular weight cutoff filters of 50 and 100 kDa; conditions: 50 and 100 kDa cutoff filters; conflicting results from different blots
From the text: Another area of investigation this quarter was the effect of NU-9 on the formation of different sizes of AβOs. Evidence from animal models and human samples indicate that that some species of AβOs are more toxic than others, and specifically that higher molecular weight oligomers (>50 kDa) may include the most Aβ-relevant species^15-16. To investigate whether NU-9 reduced the formation of high-molecular weight AβOs, I carried out several experiments using molecular weight cutoff filters of 50 and 100 kDa. However, conflicting results were obtained from different blots. […] The use of sufficient bioreplicates and thorough mixing is important for these experiments. These experiments may be revisited in the future, or the question of the type of AβOs targeted could be addressed through proteomics.

[2] = system: preformed AβOs; test: Binding of preformed AβOs to hippocampal neurons; format: cell-based, rat
Experimental: FIG. 11. […] Hippocampal neurons were treated with 3 μM NU-9 or vehicle for 30 min, then with Aβ monomer or preformed AβOs for 24 h. […] Neurons were stained with NU4 (anti-AβO antibody) and puncta per process were quantified.
FIG. 15. Mature hippocampal neurons were pre-treated with vehicle or 3 μM NU-9 for 30 min, then vehicle, 200 nM, or 500 nM AβO for 30 min. Then cells were fixed and labelled using anti-MAP2 (green, dendrites), DAPI (blue, nucleus), and NU2 (red, AβOs).
FIG. 19. Mature hippocampal neurons were treated first with 3 μM 9 for 30 min, and then with A) 30 or B) 200 nM LC AβOs for 30 min. Then, cells were fixed and labelled with anti-MAP2, DAPI, and NU2 (AβOs). The graphs show quantification of puncta/μm dendrite (30 images analyzed/condition, *** indicates p<0.001, ** p<0.01, * p<0.05).
If NU-9 did have some effect on preformed AβOs, this would support the alternate hypothesis that NU-9 removes AβO binding targets such as NKAα3 or PRP^c from the neuronal membrane^8-10.

[3] = system: acidic lysosomes; test: Lysotracker labelling of acidic compartments in hippocampal neurons; format: cell-based, rat; conditions: 3 μM NU-9, 30-minute treatment
Experimental: FIG. 24. Mature E18 hippocampal neurons were treated 3 μM NU-9, and subsequently labelled with lysotracker. A) total immunofluorescence (integrated density), B) mean intensity, C) average size of acidic compartments, D) number of acidic compartments.

[4] = biological target: cathepsin B (Homo sapiens, UniProt P07858); test: Purified cathepsin B enzyme activity (Z-RR-AMC to 7-AMC); format: biochemical; conditions: NU-9 0.0003-30 μM
Experimental: FIG. 28. A) 0.0003-30 μM NU-9 was combined with purified cathepsin B enzyme in the presence of the cathepsin B substrate Z-RR-AMC. Cathepsin B enzyme activity was measured by the rate of 7-AMC production by fluorescence. Percent change in rate with NU-9 was quantified in the graph. […] B) Mature hippocampal neurons were treated with NU-9 for 30 minutes, then Magic Red was used to monitor intracellular cathepsin L activity. Cells were treated in 3 wells.

[5] = biological target: cathepsin L (Homo sapiens, UniProt P07711); test: Purified cathepsin L enzyme activity (Z-FR-AMC to 7-AMC); format: biochemical; conditions: 0.0003-150 μM NU-9
Sequence of cathepsin L (P07711 114-333, species assumed): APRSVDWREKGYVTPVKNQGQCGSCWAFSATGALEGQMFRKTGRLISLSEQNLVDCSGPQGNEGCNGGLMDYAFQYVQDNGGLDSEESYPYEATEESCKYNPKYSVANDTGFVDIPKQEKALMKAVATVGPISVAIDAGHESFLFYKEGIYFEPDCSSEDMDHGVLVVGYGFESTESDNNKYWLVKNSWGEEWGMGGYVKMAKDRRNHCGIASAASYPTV
Experimental: (§1) FIG. 26. A) 0.0003-150 μM NU-9 was combined with purified cathepsin L enzyme in the presence of the cathepsin L substrate Z-FR-AMC. Cathepsin L enzyme activity was measured by the rate of 7-AMC production by fluorescence. Percent change in rate was quantified in the graph. […] B) Mature hippocampal neurons were treated with NU-9 for 30 minutes, then Magic Red was used to monitor intracellular cathepsin L activity. Cells were treated in 3 wells, and 9-22 images were analyzed per condition.
(§2) No effect of 0.0003-150 μM NU-9 was observed on the cathepsin L activity as measured by the production rate of 7-AMC from Z-FR-AMC by purified cathepsin L enzyme.

[6] = biological target: T1, intracellular cathepsin L activity (Rattus norvegicus, UniProt P07154); test: Intracellular cathepsin L activity in hippocampal neurons (Magic Red); format: cell-based; conditions: hippocampal neurons treated with NU-9 30 minutes
T1 construct: endogenous in cells
T1 sequence (P07154 114-334): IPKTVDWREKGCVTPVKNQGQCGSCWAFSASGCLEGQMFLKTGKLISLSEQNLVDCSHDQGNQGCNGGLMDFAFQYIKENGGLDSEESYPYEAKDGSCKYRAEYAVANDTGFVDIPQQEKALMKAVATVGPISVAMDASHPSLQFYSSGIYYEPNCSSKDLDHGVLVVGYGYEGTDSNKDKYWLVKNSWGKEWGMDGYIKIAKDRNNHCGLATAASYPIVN
Experimental: as §1, §2

[7] = biological target: T2, cathepsin B (Rattus norvegicus, UniProt P00787); test: Cathepsin B activity in hippocampal neurons (cell-based, Magic Red); conditions: neurons treated with NU-9 30 minutes
T2 construct: endogenous in cells
T2 sequence (P00787 80-126 limits assumed): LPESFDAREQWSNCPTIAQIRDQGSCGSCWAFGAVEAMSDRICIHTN
T2 sequence (P00787 129-333 limits assumed): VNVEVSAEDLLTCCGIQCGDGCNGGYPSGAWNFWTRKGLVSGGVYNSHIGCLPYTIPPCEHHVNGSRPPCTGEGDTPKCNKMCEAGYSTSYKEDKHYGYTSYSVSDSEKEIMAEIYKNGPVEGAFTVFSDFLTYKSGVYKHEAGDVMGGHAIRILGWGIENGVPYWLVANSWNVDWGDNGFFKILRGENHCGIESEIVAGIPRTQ

C[C@H](Oc1cc(C(F)(F)F)cc(C(F)(F)F)c1)C1CC(=O)CC(=O)C1 [NU-9, (S)-5-(1-(3,5-bis(trifluoromethyl)phenoxy)ethyl)cyclohexane-1,3-dione]
change in AβO size species [1]: reduction in 50-100 kDa species was observed, alongside an increase in small species (<50 kDa); also recorded: reduction in most species was observed, except in small species (<50 kDa) | binding of AβOs to hippocampal neurons (puncta/μm dendrite) ([2]; 3 μM 30 min, then 30 or 200 nM LC AβOs 30 min): no effect on the binding of the AβOs to hippocampal neurons | binding of preformed AβOs to dendrites (puncta/μm) ([2]; 3 μM NU-9 30 min, then 200 or 500 nM AβO 30 min): has no effect on the binding of preformed AβOs; also recorded: no effect on binding to dendrites | binding of preformed AβOs to neurons (NU4 puncta per process) ([2]; 3 μM NU-9 30 min, then preformed AβOs 24 h): does not reduce binding in neurons treated with premade AβOs; also recorded: does not reduce binding of preformed AβOs to neurons | lysosome number, size, and acidity [3]: unchanged | cathepsin B activity (cleavage of Z-RR-AMC to 7-AMC) [4]: Minimal effect | cathepsin L activity (production rate of 7-AMC from Z-FR-AMC) [5]: No effect | intracellular cathepsin L activity [6]: not observed to modulate intracellular cathepsin L activity | cathepsin B activity in hippocampal neurons [7]: not observed to alter cathepsin B activity
